Experimental findings from patent US20090181953A1, “COMPOUND FORMS AND USES THEREOF” (WYETH, priority 2008, published 2009) are described below.

The nature of series [1]: hygroscopicity, Dynamic Vapor Sorption (DVS). The class given is physicochemical. To be noted: for water absorbed eventually (up to): 90% RH; for RH at which moisture pick-up starts: relative humidity; for Hygroscopicity: hydrochloric acid salt. The procedure:
Salt forms of a compound of formula 1 were investigated with X-ray powder diffraction, DSC, TGA and microscopy. FIG. 1 illustrates X-ray patterns observed for various salt forms. FIGS. 2 and 3 present results of thermal studies performed on such salt forms. FIGS. 4 and 5 present DVS data of sulfuric and phosphoric salts. […] FIGS. 6-12 show characterization data for hydrochloride salt forms.
Dynamic Vapor Sorption (DVS) was done at 25-26° C.

The nature of series [2]: solubility of hydrochloride crystal forms. The class given is physicochemical.
Series [3] has as its target T1, α7 nicotinic acetylcholine receptor (Rattus norvegicus, UniProt Q05941).
T1 construct: expressed in transfected cells
Kind of series: functional FLIPR assay, α7 nAChR stably expressed in GH4C1 cells. To be noted: GH4C1 cells stably transfected with rat α7 nAChR; agonist concentration range 0.001 to 30 microM. The format is cell-based.
Text: Rat GH4C1 cells were then transfected with the rat receptor, cloned and analyzed for functional alpha7 nicotinic receptor expression employing a FLIPR assay to measure changes in intracellular calcium concentrations.
The FLIPR system allows the measurements of real time Ca^2+-concentration changes in living cells using a Ca^2+ sensitive fluorescence dye (such as Fluo4). This instrument enables the screening for agonists and antagonists for alpha 7 nAChR channels stably expressed in GH4C1 cells.
GH4C1 cells stably transfected with rat-α7-nAChR (see above) were used. These cells are poorly adherent and therefore pretreatment of flasks and plates with poly-D-lysine was carried out. Cells are grown in 150 cm^2 T-flasks, filled with 30 ml of medium at 37° C. and 5% CO2.
EC50 and IC50 values were calculated using the IDBS XLfit4.1 software package employing a sigmoidal concentration-response (variable slope) equation:

T1 sequence (Q05941 23-502): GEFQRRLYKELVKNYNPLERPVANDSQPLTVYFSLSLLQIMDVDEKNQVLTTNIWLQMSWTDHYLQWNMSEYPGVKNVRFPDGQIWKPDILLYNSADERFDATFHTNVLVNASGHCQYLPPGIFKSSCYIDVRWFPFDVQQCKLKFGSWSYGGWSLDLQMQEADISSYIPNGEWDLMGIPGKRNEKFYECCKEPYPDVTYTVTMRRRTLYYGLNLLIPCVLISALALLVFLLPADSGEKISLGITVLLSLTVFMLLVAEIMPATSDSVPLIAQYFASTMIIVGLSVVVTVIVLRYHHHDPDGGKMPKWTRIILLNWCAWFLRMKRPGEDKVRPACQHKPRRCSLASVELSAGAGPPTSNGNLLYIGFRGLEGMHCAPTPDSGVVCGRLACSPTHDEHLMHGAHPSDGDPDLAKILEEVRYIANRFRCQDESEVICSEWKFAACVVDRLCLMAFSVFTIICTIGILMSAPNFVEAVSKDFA

As to `COc1ccc(-c2cc(NC(=O)CCCCN3CCCN(C(C)=O)CC3)n[nH]2)cc1.Cl` [Form I, 5-(4-acetyl-1,4-diazepan-1-yl)-N-(5-(4-methoxyphenyl)-1H-pyrazol-3-yl)pentanamide hydrochloric salt Form I], the “moisture gained at 70-100% RH” value in series [1] (70-100% RH, lost without significant hysteresis on decreasing RH) is “at least 2%”. In series [1], the “water absorbed eventually (up to)” value is listed as “up to 2%” and the “RH at which moisture pick-up starts” value is listed as “about 50%”. Further, the “moisture gained when equilibrated at RH less than or equal to 70%” value in series [1] (RH <= 70%) is given as “about 0.5%”. Moreover, the “solubility in water (in words)” value in series [2] was “considerably soluble”.

`C[N+]1(C)CCN(c2ccccc2)CC1` [DMPP] gave an EC50 in series [3] of 0.98 ± 0.47 µM.

`COc1ccc(-c2cc(NC(=O)CCCCN3CCCN(C(C)=O)CC3)n[nH]2)cc1.Cl` [Form II, 5-(4-acetyl-1,4-diazepan-1-yl)-N-(5-(4-methoxyphenyl)-1H-pyrazol-3-yl)pentanamide hydrochloric salt Form II]: in series [1], the “water absorbed eventually (up to)” value is reported as “up to 7%” and the “RH at which moisture pick-up starts” value is reported as “about 20%”. The “water held at low RH” value in series [1] (low RH (0%)) is on record as 2%. Also, the “solubility in water (in words)” value in series [2] is on record as “considerably soluble”.

Consider `COc1ccc(-c2cc(NC(=O)CCCCN3CCCN(C(C)=O)CC3)n[nH]2)cc1.Cl` [Form III], for which, in series [1] (listed as Crystal Form III), the “water held at 50% RH” value is “(10% water” and the “Hygroscopicity (in words)” value is on record as “Hygroscopic”. Besides, the solubility in series [2] (MC/T, aqueous with cosolvent or surfactant or cyclodextrin) was over 100 mg/mL.

Turning to `COc1ccc(-c2cc(NC(=O)CCCCN3CCCN(C(C)=O)CC3)n[nH]2)cc1.Cl` [Form V], in series [1] (listed as Crystal Form V), the “water held at 50% RH” value was “(7% at RH” and the “Hygroscopicity (in words)” value is on record as “Hygroscopic”.

In the case of `COc1ccc(-c2cc(NC(=O)CCCCN3CCCN(C(C)=O)CC3)n[nH]2)cc1.Cl` [Hydrochloric acid, 5-(4-acetyl-1,4-diazepan-1-yl)-N-(5-(4-methoxyphenyl)-1H-pyrazol-3-yl)pentanamide hydrogen chloride], the melting point is 132 to 133 °C. Further, the Hygroscopicity entry in series [1] (crystalline solid with melting onset 125° C. (first of two such lines)) is given as “Yes”. For the same molecule, the Hygroscopicity entry in series [1] (crystalline solid with melting onset 165° C.) is given as “Somewhat”. Moreover, in series [1] (crystalline solid with melting onset 185° C.), the Hygroscopicity entry is listed as “No”. Besides, the Hygroscopicity result in series [1] (solid with three peaks: about 100, about 180 and about 200° C.) is reported as “Yes”. Further, the “hygroscopicity of the sample” value in series [1] (hydrochloride salt of Example 2D, precipitated from DCM with HCl in Et2O) was “extreme hygroscopicity”. Also, the “Hygroscopicity (in words)” value in series [1] (listed as hydrochloride) is “non-hygroscopic”.

Sulfuric acid: the “water held at 50% RH” value is given as “maintains 0.4%” in series [1], “about 0.4%” in series [1] (listed as sulfate salt form) and “about 0.4%” in series [1] (listed as sulfuric salt form). The “gain below 70% RH” value in series [1] (below 70% RH) came to 0.5%. Moreover, the “Hygroscopicity (in words)” value is on record as “non-hygroscopic” in series [1] (listed as sulfate salt), “low degree of hygroscopicity” in series [1] (listed as sulfate salt form) and “low degree of hygroscopicity” in series [1] (listed as sulfuric salt form).
